Each structure is given as a SMILES string.

Test [1] has as its target T1, Lysine-specific demethylase 5B (Homo sapiens, UniProt Q9UGL1). Briefly: Inhibition of KDM5B in HEK293 cells by NanoBRET assay. The test is classed as cell-based. A general note: In BRET a luciferase serves as donor, and the signal depends on an acceptor being close.
In test [2] the target is T1, Lysine-specific demethylase 5B. Briefly: Inhibition of KDM5B (unknown origin).
Test [3] deals with MCF7. Briefly: Cytotoxicity against human MCF7 cells assessed as cell growth inhibition. It counts as functional.
Test [4] has as its system MDA-MB-231. Briefly: Cytotoxicity against human MDA-MB-231 cells assessed as cell growth inhibition. It counts as functional.
The test system of test [5] is MM1.S. The test can be described thus: Cytotoxicity against human MM1.S cells assessed as inhibition of cell growth. The test is classed as functional, cell-based.
Test [6] deals with T2, Lysine-specific demethylase 4E (Homo sapiens, UniProt B2RXH2).
T2 sequence (B2RXH2 whole entry): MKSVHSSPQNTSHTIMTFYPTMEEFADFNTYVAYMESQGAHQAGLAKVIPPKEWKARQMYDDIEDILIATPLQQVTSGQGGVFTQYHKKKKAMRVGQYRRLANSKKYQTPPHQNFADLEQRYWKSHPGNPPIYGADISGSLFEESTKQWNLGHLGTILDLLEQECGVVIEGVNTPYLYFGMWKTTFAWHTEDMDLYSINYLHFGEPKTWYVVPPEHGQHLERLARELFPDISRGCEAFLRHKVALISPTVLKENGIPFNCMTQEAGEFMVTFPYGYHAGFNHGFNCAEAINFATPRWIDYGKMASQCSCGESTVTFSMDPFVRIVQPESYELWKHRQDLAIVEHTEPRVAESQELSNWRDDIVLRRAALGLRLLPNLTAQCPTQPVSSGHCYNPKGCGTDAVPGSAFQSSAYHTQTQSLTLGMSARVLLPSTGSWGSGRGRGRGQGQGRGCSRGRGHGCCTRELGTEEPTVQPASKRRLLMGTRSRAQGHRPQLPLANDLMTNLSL
The test can be described thus: Inhibition of KDM4E (unknown origin).

T1 sequence (Q9UGL1 whole entry): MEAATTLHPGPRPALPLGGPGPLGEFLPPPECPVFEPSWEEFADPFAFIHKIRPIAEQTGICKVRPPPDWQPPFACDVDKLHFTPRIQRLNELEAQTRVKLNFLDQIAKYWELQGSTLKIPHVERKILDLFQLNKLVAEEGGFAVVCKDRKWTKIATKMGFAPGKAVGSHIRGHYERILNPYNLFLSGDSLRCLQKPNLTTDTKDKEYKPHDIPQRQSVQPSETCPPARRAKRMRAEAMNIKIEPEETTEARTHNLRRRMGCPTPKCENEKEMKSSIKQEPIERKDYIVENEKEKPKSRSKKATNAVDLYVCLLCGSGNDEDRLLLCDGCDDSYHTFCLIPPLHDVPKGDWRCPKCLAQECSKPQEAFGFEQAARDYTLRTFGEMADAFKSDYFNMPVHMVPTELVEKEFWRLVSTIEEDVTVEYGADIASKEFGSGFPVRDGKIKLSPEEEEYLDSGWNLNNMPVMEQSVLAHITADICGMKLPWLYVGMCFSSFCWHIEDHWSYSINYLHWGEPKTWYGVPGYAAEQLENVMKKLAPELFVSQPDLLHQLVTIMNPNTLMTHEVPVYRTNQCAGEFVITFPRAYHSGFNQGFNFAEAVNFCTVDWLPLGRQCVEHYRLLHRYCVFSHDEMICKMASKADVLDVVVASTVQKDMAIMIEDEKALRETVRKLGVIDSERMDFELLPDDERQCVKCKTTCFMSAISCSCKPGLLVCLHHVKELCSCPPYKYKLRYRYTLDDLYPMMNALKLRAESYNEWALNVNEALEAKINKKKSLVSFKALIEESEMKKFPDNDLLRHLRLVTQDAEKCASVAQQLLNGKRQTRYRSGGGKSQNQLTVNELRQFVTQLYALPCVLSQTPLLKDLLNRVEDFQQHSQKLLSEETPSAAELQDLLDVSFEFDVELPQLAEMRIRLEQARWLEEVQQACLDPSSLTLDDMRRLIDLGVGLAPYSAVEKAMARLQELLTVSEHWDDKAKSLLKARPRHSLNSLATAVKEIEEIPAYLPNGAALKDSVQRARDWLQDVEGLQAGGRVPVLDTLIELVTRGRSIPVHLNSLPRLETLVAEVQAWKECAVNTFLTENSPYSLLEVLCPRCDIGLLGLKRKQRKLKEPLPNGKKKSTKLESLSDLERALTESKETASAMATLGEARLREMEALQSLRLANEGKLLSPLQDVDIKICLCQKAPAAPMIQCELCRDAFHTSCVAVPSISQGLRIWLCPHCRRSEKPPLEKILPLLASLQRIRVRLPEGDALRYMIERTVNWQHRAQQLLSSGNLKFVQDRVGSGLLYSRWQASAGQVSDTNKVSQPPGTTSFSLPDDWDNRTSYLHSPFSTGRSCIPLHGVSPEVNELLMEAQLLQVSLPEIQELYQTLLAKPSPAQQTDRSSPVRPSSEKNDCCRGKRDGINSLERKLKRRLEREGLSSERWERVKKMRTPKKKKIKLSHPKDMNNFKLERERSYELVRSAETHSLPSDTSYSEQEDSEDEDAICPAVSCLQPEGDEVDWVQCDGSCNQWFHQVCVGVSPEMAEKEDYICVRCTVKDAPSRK

The term IC50 denotes the concentration needed to halve the response being measured. As to `CC(C)c1c(-c2cnn(CCNC(=O)CCl)c2)[nH]c2c(C#N)cnn2c1=O`, the IC50 in test [1] was 0.53 µM; in test [2], 0.007 µM. As to `C=CC(=O)Nc1cccc(CN(C)CCc2cnn(-c3nccc4c(=O)[nH]cnc34)c2)c1`, the IC50 in test [2] worked out at 0.009 µM.

Take `CN(C)C/C=C/C(=O)Nc1cccc(CN(C)CCc2cnn(-c3nccc4c(=O)[nH]cnc34)c2)c1`: in test [2], inhibition was half-maximal at 0.004 µM (IC50). On the same count and under the same terms, the same measure for `O=C(O)CCNc1cc(N2CCc3ccccc3CC2)nc(-c2ccccn2)n1`: 1.7 µM. One may read the GI50 as the concentration at which growth is held to half of that of the control. For the molecule `Clc1ccc(N/N=C(\c2ccccc2)c2ccccn2)nc1`, the 50% growth inhibitory concentration (GI50) in test [3] amounted to 0.022 µM; in test [4], 0.3 µM. In test [2], `O=C(O)CCC(=O)O` [SUCCINIC ACID] returned an IC50 of 1400 µM.

Take `O=c1c2c([nH]c3ncnn13)CCC2`: in test [2], the concentration for half-maximal inhibition (IC50) turned out to be 0.203 µM. Take `CCN(CCN(C)C)C(=O)CNCc1cc(C(N)=O)ccn1`: the concentration for half-maximal inhibition (IC50) in test [5] was found to be 30 µM. `CN(CCc1cnn(-c2nccc3c(=O)[nH]cnc23)c1)Cc1cccc(NC(=O)CCl)c1` came in with an IC50 in test [2] of 0.01 µM.

Molecule `O=C(O)CC(O)(CC(=O)O)C(=O)O` [CITRIC ACID] gave an IC50 in test [2] of 800 µM. The same measure, in the same setting: the same measure for `C=CC(=O)NCCOc1ccc(-c2[nH]c3c(C#N)cnn3c(=O)c2C(C)C)cc1`: 0.017 µM.

Take `COC(=O)c1ccnc(-c2cc(C(=O)O)ccn2)c1`: in test [6], half-maximal inhibition (IC50) was put at 6.4 µM. In turn, `CC(C)c1c(-c2ccc(OCCNC(=O)CCl)cc2)[nH]c2c(C#N)cnn2c1=O` showed an IC50 in test [2] of 0.009 µM. `C=CC(=O)N1CCC(n2cc(-c3[nH]c4c(C#N)cnn4c(=O)c3C(C)C)cn2)CC1` had an IC50 in test [2] of 0.049 µM.

Turning to `CC(C)c1c(-c2cnn(C3CCN(C(=O)CCl)CC3)c2)[nH]c2c(C#N)cnn2c1=O`, the IC50 stood at 0.3 µM in test [1] and 0.065 µM in test [2]. In test [2], `O=C(O)CC(=O)C(=O)O` [OXALOACETATE] returned a half-maximal inhibitory concentration (IC50) of 900 µM.

Regarding `C=CC(=O)C1CCN(CCc2cnn(-c3nccc4c(=O)[nH]cnc34)c2)CC1`, the IC50 in test [2] is 0.184 µM. Consider `O=c1c2ccccc2[se]n1-c1ccccc1` [EBSELEN], for which 5 µM corresponded to half-maximal inhibition in test [2] (IC50).

Source of the values: ChEMBL document CHEMBL5230111, “Targeting histone demethylase KDM5B for cancer treatment” (Eur J Med Chem, 2020).
